According to patent US20260014179A1, “OLIGOSACCHARIDE COMPOSITION FOR USE IN THE REDUCTION OF THE LEVEL OF BRANCHED SHORT CHAIN FATTY ACIDS” (priority 2022, published 2026):

System: microbiota present in the faecal samples
Assay: Oligosaccharide distribution (HPAEC-PAD peak areas) during faecal fermentation
From the text: HPAEC-PAD (high performance anion exchange chromatography) equipped with a PA-1 column was used for separation of mono- and oligosaccharides of the different samples. Efforts were made to achieve a separation quality described in van Leeuwen et al., Carbohydrate Research 2016, 425, 48-58. […] The samples as used for GPC were 100-fold diluted with DMSO before injection.
The distribution of oligosaccharides in the mixtures was also monitored over this time period using the method described above in relation to Table 2.

| Peak areas (in Comp. Ex. 1, 0 h) | Peak areas (in Comp. Ex. 1, 6 h, Donor A) | Peak areas (in Comp. Ex. 1, 6 h, Donor B) | Peak areas (in Comp. Ex. 1, 6 h, Donor C) | Peak areas (in Comp. Ex. 1, 24 h, Donor A) | Peak areas (in Comp. Ex. 1, 24 h, Donor B) | Peak areas (in Comp. Ex. 1, 24 h, Donor C) | Peak areas (in Comp. Ex. 1, 48 h, Donor A) | Peak areas (in Comp. Ex. 1, 48 h, Donor B) | Peak areas (in Comp. Ex. 1, 48 h, Donor C) | Peak areas (in Example 2, 0 h) | Peak areas (in Example 2, 6 h, Donor A) | Peak areas (in Example 2, 6 h, Donor B) | Peak areas (in Example 2, 6 h, Donor C) | Peak areas (in Example 2, 24 h, Donor A) | Peak areas (in Example 2, 24 h, Donor B) | Peak areas (in Example 2, 24 h, Donor C) | Peak areas (in Example 2, 48 h, Donor A) | Peak areas (in Example 2, 48 h, Donor B) | Peak areas (in Example 2, 48 h, Donor C) | Compound |
| --- | --- | --- | --- | --- | --- | --- | --- | --- | --- | --- | --- | --- | --- | --- | --- | --- | --- | --- | --- | --- |
| 19.5 | 2.9 | 34.1 | 0.2 | 0.0 | 0.1 | 0.0 | 0.0 | 0.0 | 0.0 | 17.5 | 2.6 | 26.9 | 0.3 | 0.0 | 0.0 | 0.0 | 0.0 | 0.0 | 0.0 | O=C[C@H](O)[C@@H](O)[C@H](O)[C@H](O)CO [Glucose] |
| 0.5 | 2.4 | 45.1 | 0.7 | 0.0 | 0.1 | 0.0 | 0.0 | 0.0 | 0.0 | 1.3 | 2.1 | 47.3 | 0.8 | 0.0 | 0.1 | 0.0 | 0.0 | 0.0 | 0.0 | O=C[C@H](O)[C@@H](O)[C@@H](O)[C@H](O)CO [Galactose] |

| Compound | Peak areas (in Comp. Ex. 1, 0 h) | Peak areas (in Comp. Ex. 1, 6 h, Donor A) | Peak areas (in Comp. Ex. 1, 6 h, Donor B) | Peak areas (in Comp. Ex. 1, 6 h, Donor C) | Peak areas (in Comp. Ex. 1, 24 h, Donor A) | Peak areas (in Comp. Ex. 1, 24 h, Donor B) | Peak areas (in Comp. Ex. 1, 24 h, Donor C) | Peak areas (in Comp. Ex. 1, 48 h, Donor A) | Peak areas (in Comp. Ex. 1, 48 h, Donor B) | Peak areas (in Comp. Ex. 1, 48 h, Donor C) | Peak areas (in Example 2, 0 h) | Peak areas (in Example 2, 6 h, Donor A) | Peak areas (in Example 2, 6 h, Donor B) | Peak areas (in Example 2, 6 h, Donor C) | Peak areas (in Example 2, 24 h, Donor A) | Peak areas (in Example 2, 24 h, Donor B) | Peak areas (in Example 2, 24 h, Donor C) | Peak areas (in Example 2, 48 h, Donor A) | Peak areas (in Example 2, 48 h, Donor B) | Peak areas (in Example 2, 48 h, Donor C) |
| --- | --- | --- | --- | --- | --- | --- | --- | --- | --- | --- | --- | --- | --- | --- | --- | --- | --- | --- | --- | --- |
| OC[C@H]1O[C@@H](O[C@H]2[C@H](O)[C@@H](O)C(O)O[C@@H]2CO)[C@H](O)[C@@H](O)[C@H]1O (stereo partly drawn) [Lactose] | 48.4 | 0.7 | 1.9 | 0.4 | 0.4 | 0.5 | 0.4 | 0.3 | 0.5 | 0.3 | 30.9 | 0.3 | 5.3 | 0.6 | 0.3 | 0.4 | 0.4 | 0.3 | 0.5 | 0.3 |
